Patent US5776720A, “Assay reagent” (priority 1995, dated 1998)
Values joined by “and” are separate entries in the source; they are usually repeats but may differ in a detail not shown here. Equal values may be shown once. Where a name gives a salt, the structure may show the parent alone. Numbered stars: 1 amine (or outer) side, 2 acyl side, 3 side chain; on linkers, the order of the positions; unused ones are H or OH. Bridge positions count the residues as written; N and C are the ends. Peptide text beside a SMILES is read from it. I, II: the chains in the order shown. Rhodamine110 = O=C1OC2(c3ccc(N[*:1])cc3Oc3cc(N[*:2])ccc32)c2ccccc21

What was measured:
Assay type in all cases: cell-based, human
[1] = system: Ala-aminopeptidase and Lys-aminopeptidase, Dipeptidyl peptidase IV and Cathepsin D; experiment: Panel of substrates in normals and HIV+ patients (Table 4)
Procedure: A panel of assay compounds are assembled consisting of Ala-aminopeptidase and Lys-aminopeptidase, Dipeptidyl peptidase IV (Ala-Ala)2 rhodamine 110 and Cathepsin D to indicate possible TB infection in AIDS related cases.
A panel of enzymatic substrates is performed consisting of Ala-aminopeptidase and Lys-aminopeptidase, Dipeptidyl peptidase IV (Ala-Ala)2 rhodamine 110 and Cathepsin D to indicate possible TB infection in AIDS related cases.

[2] = system: erythrocytes; experiment: Normal erythrocyte enzyme activity (Table 3B); settings: normal donors
Procedure: A sample, consisting of whole blood (in EDTA, Heparin or ACD) or dissociated tissue or body fluids (synovial fluid) or cell culture media is obtained and stored in a manner so as not to decrease viability. The sample is washed sufficiently to remove plasma, media, body fluid, debris and extra-cellular enzymes. The wash media consists of a physiologically balanced buffered salt solution. The washed cells are incubated at 37° C. 50 μL of sample and 25 μL of substrate media are mixed together and allowed to incubate at 37° C. for a predetermined amount of time. At the end of the incubation period, the sample is then measured for fluorescence.
(§1) A normal in house adult donor pool was drawn, recording sex and determining that no known disease state was present at the time of sample draw. Criteria for rejecting samples included patients under medication, patients with infection or inflammation of any type, colds and flu as well as any known medical illness such as cancer, heart ailment and high blood pressure. A donor list of 75 patients has been developed and a mean and 2 sd range established. A subgroup of "super normals" was developed from this list by examining the 75 patients to determine which group falls closest to the mean for all enzymes in all cell types tested. These patients were used as the "wellness index" or best group of "normalcy" patients. If a study required the use of children or newborns then this same format was used to develop a data base for these age groups.

[3] = system: lymphocytes; experiment: Normal leukocyte enzyme activity (Table 3A), lymphocytes; set-up: unit not given here; settings: normal donors
From the text: (§2) The measured fluorescence intensity can be converted from mean channel fluorescence (in peak or integrated mode) to MESF (molecules of equivalent soluble fluorochrome, Flow Cytometry Standards Corp. , San Juan, Puerto Rico) or International Units of hydrolysis per cell. A normal range of enzyme activity is established by assaying males and females in sufficient quantity to characterize the population levels statistically.
as §1

[4] = system: monocytes; experiment: Normal leukocyte enzyme activity (Table 3A), monocytes; set-up: unit not given here; settings: normal donors
From the text: as §2, §1

[5] = system: granulocytes; experiment: Normal leukocyte enzyme activity (Table 3A), granulocytes; set-up: unit not given here; settings: normal donors
From the text: as §2, §1

[6] = system: GRANS; experiment: Aberrant enzyme activities in febrile children (Table 7), grans
[7] = system: MONOS; experiment: Aberrant enzyme activities in febrile children (Table 7), monos

Compound | NORMAL E[…] ACTIVITY MEAN [2] | NORMAL LEUKOCYTE ENZYME ACTIVITY, LYMPHS Mean [3] | NORMAL LEUKOCYTE ENZYME ACTIVITY, MONOS Mean [4] | NORMAL LEUKOCYTE ENZYME ACTIVITY, GRANS Mean [5] | other results
ALA--GLY* |  |  |  |  | MEAN DELTA FL ([1]; HIV + PATIENTS): 29.7; MEAN DELTA FL ([1]; HIV + PATIENTS, listed as ALA--GLY****): 39.9; MEAN DELTA FL ([1]; NORMALS): 31.6; MEAN DELTA FL ([1]; NORMALS, listed as ALA--GLY****): 48.0
NC(=O)CC[C@H](N)C(=O)N[C@@H](CO)C(=O)Nc1ccc2c(c1)Oc1cc(NC(=O)[C@H](CO)NC(=O)[C@@H](N)CCC(N)=O)ccc1C21OC(=O)c2ccccc21 (relative stereo) [GLN--SER*] |  |  |  |  | MEAN DELTA FL ([1]; HIV + PATIENTS): 13.7 and 12.7; MEAN DELTA FL ([1]; NORMALS): 11.9 and 6.1
N=C(N)NCCC[C@H](N)C(=O)NCC(=O)N[C@@H](CCC(=O)O)C(=O)N[C@@H](CO)C(=O)Nc1ccc2c(c1)Oc1cc(NC(=O)[C@H](CO)NC(=O)[C@H](CCC(=O)O)NC(=O)CNC(=O)[C@@H](N)CCCNC(=N)N)ccc1C21OC(=O)c2ccccc21 (stereo partly drawn) [RGES, (Arg-Gly-Glu-Ser)2 Rho 110] (I: H-RGES / II: H-RGES; linker I:C-II:C via Rhodamine110) | 0.118 | 1.43 | 8.37 | 3.96 | 
O=C1OC2(c3ccc(OP(=O)(O)O)cc3Oc3cc(OP(=O)(O)O)ccc32)c2ccccc21 [DPO4, (PO4)2 fluorescein] | 0.151 | 54.29 | 148.32 | 85.42 | 
CC(C)C[C@H](NC(=O)CNC(=O)[C@@H](N)CC(C)C)C(=O)NCC(=O)Nc1ccc2c(c1)Oc1cc(NC(=O)CNC(=O)[C@H](CC(C)C)NC(=O)CNC(=O)[C@@H](N)CC(C)C)ccc1C21OC(=O)c2ccccc21 [LGLG, (H--L--Leu--Gly--Leu--Gly)2 Rho 110.2TFA] (I: H-LGLG / II: H-LGLG; linker I:C-II:C via Rhodamine110) | 0.122 | 1.42 | 11.36 | 4.08 | 
CC(=O)Oc1ccc2c(c1)Oc1cc(OC(C)=O)ccc1C21OC(=O)c2ccccc21 [FDA--NAF, fluorescein diacetate, reference compound] | 0.136 | 17.98 | 93.36 | 81.99 | 
dichlorofluorescein | 0.268 |  |  |  | aberrant enzyme activity ([6]; P89 Viral Stomatitis): + (>0.25 Increase over normal range); aberrant enzyme activity ([6]; P92 Adenitis): + (>0.25 Increase over normal range); aberrant enzyme activity ([6]; P95 Viral Syndrome): + (>0.25 Increase over normal range); aberrant enzyme activity ([6]; P96 Viral Syndrome): + (>0.25 Increase over normal range); aberrant enzyme activity ([6]; P97 Pyelonephritis): + (>0.25 Increase over normal range); aberrant enzyme activity ([6]; P101 Fever-Unknown Origin): + (>0.25 Increase over normal range); aberrant enzyme activity ([6]; P103 Viral Syndrome): + (>0.25 Increase over normal range); aberrant enzyme activity ([7]; P89 Viral Stomatitis): + (>0.25 Increase over normal range); aberrant enzyme activity ([7]; P92 Adenitis): + (>0.25 Increase over normal range); aberrant enzyme activity ([7]; P95 Viral Syndrome): + (>0.25 Increase over normal range); aberrant enzyme activity ([7]; P96 Viral Syndrome): + (>0.25 Increase over normal range); aberrant enzyme activity ([7]; P97 Pyelonephritis): + (>0.25 Increase over normal range); aberrant enzyme activity ([7]; P101 Fever-Unknown Origin): + (>0.25 Increase over normal range); aberrant enzyme activity ([7]; P103 Viral Syndrome): °
CC(C)C[C@H](NC(=O)[C@@H]1CCCN1C(=O)CN)C(=O)NCC(=O)N1CCC[C@H]1C(=O)Nc1ccc2c(c1)Oc1cc(NC(=O)[C@@H]3CCCN3C(=O)CNC(=O)[C@H](CC(C)C)NC(=O)[C@@H]3CCCN3C(=O)CN)ccc1C21OC(=O)c2ccccc21 [GPLGP, (H--Gly--Pro--Leu--Gly--Pro)2 Rho 110.2TFA] (I: H-GPLGP / II: H-GPLGP; linker I:C-II:C via Rhodamine110) | 0.164 | 8.97 | 23.38 | 16.88 | 
CC(=O)Oc1ccc2c(c1)Oc1cc(OC(C)=O)ccc1C21OC(=O)c2ccccc21 [FDA, fluorescein diacetate, reference compound] | 0.126 | 13.38 |  | 68.37 | 
N=C(N)NCCC[C@H](NC(=O)OCc1ccccc1)C(=O)Nc1ccc2c(c1)Oc1cc(NC(=O)[C@H](CCCNC(=N)N)NC(=O)OCc3ccccc3)ccc1C21OC(=O)c2ccccc21 (stereo partly drawn) [Z--ARG] | 0.106 | 2.02 | 16.80 | 7.22 | 
C[C@H](NC(=O)OCc1ccccc1)C(=O)N[C@@H](C)C(=O)Nc1ccc2c(c1)Oc1cc(NC(=O)[C@H](C)NC(=O)[C@H](C)NC(=O)OCc3ccccc3)ccc1C21OC(=O)c2ccccc21 [Z--AA, (Z--Ala--Ala)2 Rho 110] |  | 151.20 | 328.25 | 363.20 | 
O=C1OC2(c3ccc(OC4O[C@H](CO)[C@@H](O)[C@H](O)[C@H]4O)cc3Oc3cc(OC4O[C@H](CO)[C@@H](O)[C@H](O)[C@H]4O)ccc32)c2ccccc21 (stereo partly drawn) [DIGLUC (FL)] | 0.110 | 0.23 | 1.89 | 0.45 | 
C[C@H](N)C(=O)N[C@@H](C)C(=O)Nc1ccc2c(c1)Oc1cc(NC(=O)[C@H](C)NC(=O)[C@H](C)N)ccc1C21OC(=O)c2ccccc21 [AA--TFA, (H--L--Ala--Ala)2 Rho 110.2TFA] |  | 56.95 | 158.31 | 154.81 | 
N[C@@H](CO)C(=O)Nc1ccc2c(c1)Oc1cc(NC(=O)[C@@H](N)CO)ccc1C21OC(=O)c2ccccc21 [SER, (H--L--Ser)2 Rho 110.2TFA] |  | 1.35 | 6.49 | 3.40 | 
CCCCCC(=O)Oc1ccc2c(c1)Oc1cc(OC(=O)CCCCC)ccc1C21OC(=O)c2ccccc21 [DIHEX 7.5, FL(hexanoate)2] |  | 7.54 | 37.22 | 17.57 | 
N=C(N)NCCC[C@H](N)C(=O)Nc1ccc2c(c1)Oc1cc(NC(=O)[C@@H](N)CCCNC(=N)N)ccc1C21OC(=O)c2ccccc21 (stereo partly drawn) [ARG, (H--L--Arg)2 Rho 110.4TFA] |  | 1.47 | 10.34 | 5.16 | 
C[C@H](NC(=O)CNC(=O)[C@H](Cc1ccccc1)NC(=O)CN)C(=O)Nc1ccc2c(c1)Oc1cc(NC(=O)[C@H](C)NC(=O)CNC(=O)[C@H](Cc3ccccc3)NC(=O)CN)ccc1C21OC(=O)c2ccccc21 [GFGA, (Gly-Phe-Gly-Ala)2 Rho 110] (I: H-GFGA / II: H-GFGA; linker I:C-II:C via Rhodamine110) | 0.131 |  | 1.01 |  | 
CCCCCCCCCCCCCCCC(=O)Oc1ccc2c(c1)Oc1cc(OC(=O)CCCCCCCCCCCCCCC)ccc1C21OC(=O)c2ccccc21 [DIPAL 6.5, FL(palmitate)2] |  | 0.15 | 0.30 | 0.14 | 
C[C@H](NC(=O)OCc1ccccc1)C(=O)NCC(=O)Nc1ccc2c(c1)Oc1cc(NC(=O)CNC(=O)[C@H](C)NC(=O)OCc3ccccc3)ccc1C21OC(=O)c2ccccc21 [Z--AG, (Z--Ala--Gly)2 Rho 110] |  | 15.17 | 34.51 | 33.19 | 
O=C1OC2(c3ccc(OC4O[C@H](CO)[C@H](O)[C@H](O)[C@H]4O)cc3Oc3cc(OC4O[C@H](CO)[C@H](O)[C@H](O)[C@H]4O)ccc32)c2ccccc21 (stereo partly drawn) [GALAC, (D-galactose)2 fluorescein] |  | 0.38 | 5.94 | 1.58 | 
CCCCCC(=O)Oc1ccc2c(c1)Oc1cc(OC(=O)CCCCC)ccc1C21OC(=O)c2ccccc21 [DIHEX 6.5, FL(hexanoate)2] |  | 15.10 | 72.87 | 33.84 | 
